Experimental data as given in patent US20200071357A1, “ANTIMICROBIAL PEPTIDES” (UNIVERSITETET I TROMSØ - NORGES ARKTISKE UNIVERSITET, priority 2016, published 2020).
Where two headings read alike, the source gives them in different places. Where no end group is shown, it is not given here.

Experiments:
Type in all cases: cell-based
[1] = system: Corynebacterium glutamicum (Cg, ATCC 13032)
Experimental: (§1) The peptides were screened for antibacterial activity against two strains of Gram-positive and two strains of Gram-negative bacteria; Corynebacterium glutamicum (Cg, ATCC 13032), Staphylococcus aureus (Sa, ATCC 9144), Pseudomonas aeruginosa (Pa, ATCC 27853) and Escherichia coli (Ec, ATCC 25922).
(§2) Cultures stored at −80° C. in glycerol were transferred to Müller-Hinton plates (MH, Difco, Lawrence, Kans., USA) and incubated for 24 h at 35° C. A few colonies of each bacterial strain were transferred to 5 ml liquid MH medium and left shaking at room temperature overnight at 600 rpm. Cultures of actively growing bacteria (20 μl) were inoculated in 5 ml MH medium and left shaking for 2 h at room temperature. The antibacterial assays were performed as previously described by Sperstad, S. V., et al. ((2009) Mol. Immunol. 46, 2604-2612) with the following exception: bacterial cultures were diluted with medium to 2.5-3×10^4 bacteria/ml concentrations. An aliquot of 50 μl (1250-1500 bacterial cells) was added to each well in 96-well Nunclon™ microtiter plates (Nagle Nunc Int., Denmark) preloaded with peptide solution (50 μl).
(§3) The microtiter plates were incubated for 24 h at 35° C. with optical density recorded every hour using an Envision 2103 multilabel reader, controlled by a Wallac Envision manager (PerkinElmer, Conn., USA). Minimum inhibitory concentration (MIC) was defined as a sample showing complete inhibition (as measured by optical density at 595 nm) compared to the negative (growth) controls, consisting of bacteria and water. Oxytetracycline (20 μM) served as a positive (inhibition) control.
(§4) The synthetic peptides were tested for antibacterial activity in concentrations ranging from 200 to 0.1 μM in two-fold dilutions. All tests were performed in triplicates.

[2] = system: Escherichia coli (Ec, ATCC 25922)
Experimental: as §1, §2, §3, §4

[3] = system: Pseudomonas aeruginosa (Pa, ATCC 27853)
Experimental: as §1, §2, §3, §4

[4] = system: Staphylococcus aureus (Sa, ATCC 9144)
Experimental: as §1, §2, §3, §4

human red blood cells = test: Haemolytic assay; settings: human red blood cells, one hour at 37° C.; for Haemolysis (%) 25 μM: peptide 25 μM; for Haemolysis (%) 200 μM: peptide 200 μM
Experimental: Selected synthesised peptide analogues were also screened for haemolytic activity using human red blood cells as described previously (Sperstad, S. V., et al. (2009) Dev. Comp. Immunol. 33, 583-591). The assay was performed on 96-well U-shaped microtiter plates (Nagle Nunc) with 50 μl peptide sample, 40 μl phosphate-buffered saline (PBS) and 10 μl red blood cells. After one hour of incubation at 37° C. in a shaker, the plate was centrifuged at 200 g for 5 min and the supernatants (60 μl) were carefully transferred to a new flat-bottomed polycarbonate microtiter plate (Nagle Nunc) and the release of haemoglobin (absorbance at 550 nm) was measured on a Synergy H1 multimode reader (BioTek, Vt., USA). Cell suspension added 0.05% Triton X-100 (Sigma-Aldrich, Mo., USA) in PBS served as positive (100% haemolysis) control and cell suspension added PBS served as negative (0% haemolysis, blank) control. The percent haemolysis was calculated using the formula [(Asample-Abaseline)/(Atriton-Abaseline)]×100. The cytotoxic peptide melittin (Sigma-Aldrich) was used as a positive control peptide and for comparison. The experiment was performed in triplicates with peptide concentrations ranging from 200 μM to 1.56 μM in two-fold dilutions.

Aureobasidium pullulans = settings: 24 h
Experimental: (§5) The synthetic peptides were also screened for antifungal activity against Candida albicans (ATCC 10231), Aureobasidium pullulans and Rhodotorula sp. (the last two were obtained from Professor Arne Tronsmo, The Norwegian University of Life Sciences, As, Norway). The antifungal assay was performed as previously described (Sperstad, S. V., et al. (2009) Dev. Comp. Immunol. 33, 583-591). Briefly, fungal spores were dissolved in potato dextrose broth (Difco, Lawrence, Kans., USA) to a concentration of 4×10^5 spores/ml. The spores (50 μl) were inoculated on 96-well Nunclon™ microtiter plates containing the synthetic peptides (50 μl) dissolved in MQ-H2O. […] The negative (growth) control consisted of medium and fungal solution. The peptides were tested for activity in concentrations ranging from 100 to 0.1 μM in two-fold serial dilutions. All tests were performed in triplicates.

[5] = system: Candida albicans (ATCC 10231)
Experimental: as §5

Rhodotorula sp. = settings: 24 h
Experimental: as §5

[6] = 24 h at 35° C., complete inhibition by OD 595 nm

| Substance | MIC (μM) Cg ([1]; ATCC 13032, 24 h) [µM] | MIC (μM) Ec ([2]; ATCC 25922, 24 h) [µM] | MIC (μM) Pa ([3]; ATCC 27853, 24 h) [µM] | MIC (μM) Sa ([4]; ATCC 9144, 24 h) [µM] | Haemolysis (%) 25 μM (human red blood cells) [%] | Haemolysis (%) 200 μM (human red blood cells) [%] | MIC (μM) A. pullulans (Aureobasidium pullulans) [µM] | MIC (μM) C. albicans ([5]; ATCC 10231, 24 h) [µM] | MIC (μM) Rhodotorula sp. (Rhodotorula sp.) [µM] | MIC (μM) Cg [1, 6] [µM] | MIC (μM) Ec [2, 6] [µM] | MIC (μM) Pa [3, 6] [µM] | MIC (μM) Sa [4, 6] [µM] | MIC (μM) C. albicans ([5]; no visible growth after 24 h at room temperature) [µM] |
| --- | --- | --- | --- | --- | --- | --- | --- | --- | --- | --- | --- | --- | --- | --- |
| GWWRRTVAKARK-NH2 [Peptide V10A, GWWRRTVAKARK-NH2] | 1.6 | 12.5 | 6.3 | 100 | 0.0 | 1.0 | 50 | 25 | 12.5 | – | – | – | – | – |
| GWWRRTVAKVAK-NH2 [Peptide R11A, GWWRRTVAKVAK-NH2] | 1.6 | 12.5 | 12.5 | 100 | 0.0 | 0.0 | 50 | 25 | 12.5 | – | – | – | – | – |
| GWWRRTVAKVRA-NH2 [Peptide K12A, GWWRRTVAKVRA-NH2] | 0.8 | – | – | 50 | 0.0 | 0.0 | 50 | 25 | 12.5 | – | – | – | – | – |
| GWWRRTVAKVRNAGRK-NH2 [HC(1-16)A8, GWWRRTVAKVRNAGRK] | 0.8 | 3.1 | 3.1 | 12.5 | 0.0 | 5.0 | – | – | – | – | – | – | – | – |
| GWWRRWVAKVRK-NH2 [HC(1-12)W6A8K12, GWWRRWVAKVRK-NH2] | – | – | – | – | – | – | 50 | – | – | 0.8 | 1.6 | 1.6 | 3.1 | 12.5 |
| GWWRRWVKKVRK-NH2 [HC(1-12)W6K8K12, GWWRRWVKKVRK-NH2] | 1.6 | 6.3 | 3.1 | 3.1 | – | – | 12.5 | 25 | 6.3 | – | – | – | – | – |
| H-GWWRRTVAKVRN-NH2 [HC(1-12)A8, GWWRRTVAKVRN] | 1.6 | 6.3 | 6.3 | 50 | – | – | – | – | – | – | – | – | – | – |
| H-GWWRRTVRK-NH2 [HC(1-9)R8, GWWRRTVRK] | 3.1 | 50 | 25 | 100 | – | – | – | – | – | – | – | – | – | – |
| KWWRRWVKKVRK-NH2 [HC(1-12)K1W6K8K12, KWWRRWVKKVRK-NH2] | 0.4 | 3.1 | 1.6 | 6.3 | – | – | 25 | 6.3 | 3.1 | – | – | – | – | – |
| RWWRRWVRRVRR-NH2 [HC(1-12)R1W6R8,9,12-NH2, RWWRRWVRRVRR-NH2] | 0.8 | 3.1 | 3.1 | 3.1 | – | – | 25 | 12.5 | 3.1 | – | – | – | – | – |
| WWRRTVAKVRNAGRK-NH2 [HC(2-16)A7, WWRRTVAKVRNAGRK] | 0.4 | 6.3 | 25 | 12.5 | – | – | – | – | – | – | – | – | – | – |
